Experimental data: ChEMBL document CHEMBL4184301, “Two new coumarins and a new xanthone from the leaves of Rhizophora mucronata” (Bioorg Med Chem Lett, 2018)

Tests used:
HeLa = test: Antiproliferative activity against human HeLa cells after 48 hrs by CCK8 assay; type: functional, cell-based
[1] = Cytotoxicity against mouse NIH/3T3 cells after 48 hrs by CCK8 assay; type: cell-based, NIH3T3
[2] = Selectivity index, ratio of CC50 for mouse […] cells to IC50 for human HL60 cells; type: toxicity; conditions: NIH/3T3 cells (printed […]) and HL60 cells, read-out: Ratio CC50/IC50
HL-60 = test: Antiproliferative activity against human HL60 cells after 48 hrs by CCK8 assay; type: functional, cell-based; conditions: HL-60, 48 h

| SMILES | IC50 (HeLa) [µM] | CC50 at 48 h [1] [µM] | selectivity ratio [2] | IC50 (HL-60) [µM] |
| --- | --- | --- | --- | --- |
| C/C=C(\C)C(=O)c1c(O)c(/C(=C/C(=O)O)c2ccccc2)c2c(c1OC)C=CC(C)(C)O2 | 36.4 | 41.1 | 19.2 | 2.2 |
| C[C@H]1Oc2c3c(c4c(-c5ccccc5)cc(=O)oc4c2C(=O)[C@@H]1C)OC(C)(C)C=C3 | 8.3 |  |  | 35.3 |
| C[C@@H]1C(=O)c2c(c3c(c4c(-c5ccccc5)cc(=O)oc24)OC(C)(C)C=C3)O[C@@H]1C | 21.6 |  |  | > 60 |
| CC(C)=CCc1c(O)cc2oc3c(O)cccc3c(=O)c2c1O | 37.1 |  |  | 6.3 |
| C=C(C)C(O)Cc1c(O)cc2c(=O)c3cccc(O)c3oc2c1O (stereo unspecified) | 14.5 |  |  | 36.8 |
| C/C=C(\C)C(=O)c1c(OC)c2c(c3c(-c4ccccc4)cc(=O)oc13)OC1C2C1(C)C (stereo unspecified) | 29.9 | 22.3 | 8.6 | 2.6 |
| CO[C@H]1c2c(c3c(c4c(-c5ccccc5)cc(=O)oc24)OC(C)(C)C=C3)O[C@H](C)[C@H]1C | 3.8 |  |  | 12.9 |
| C/C=C(/C)C(=O)c1c2c(c(OC)c3c(-c4ccccc4)cc(=O)oc13)C=CC(C)(C)O2 | 42.8 |  |  | 18.3 |
| CC1(C)C=Cc2c(cc3oc4c(O)cccc4c(=O)c3c2O)O1 | 26 | 25.3 | 9.4 | 2.7 |
| C[C@H]1Oc2c3c(c(C(=CC(=O)O)c4ccccc4)c(O)c2C(=O)[C@@H]1C)OC(C)(C)C=C3 (mixture of isomers) | > 60 |  |  | 24.5 |
| COC(=O)C=C(c1ccccc1)c1c(O)c2c(c3c1OC(C)(C)C=C3)O[C@H](C)[C@@H](C)C2=O (mixture of isomers) | 33 |  |  | 10.7 |
| C[C@@H]1C(=O)c2c(O)c(C(=CC(=O)O)c3ccccc3)c3c(c2O[C@@H]1C)C=CC(C)(C)O3 (mixture of isomers) | 21.2 |  |  | 35.6 |
| O=C(O)c1cccc(O)c1O [2,3-DIHYDROXYBENZOIC ACID] | > 60 |  |  | > 60 |
| O=c1cc(-c2ccc(O)c(-c3c(O)cc(O)c4c(=O)cc(-c5ccc(O)cc5)oc34)c2)oc2cc(O)cc(O)c12 [AMENTOFLAVONE] | 5.3 |  |  | 51.2 |
| O=c1cc(-c2ccc(O)cc2)oc2cc(O)cc(O)c12 [APIGENIN] | 21.3 |  |  | 22.3 |
| CC(C)=CCc1c2c(c3oc(=O)cc(-c4ccccc4)c3c1O)C(=O)[C@H](C)[C@@H](C)O2 [BRASIMARIN C] | 4.4 |  |  | 10.1 |
| CC1(C)C=Cc2c(cc3oc4c(O)c(O)ccc4c(=O)c3c2O)O1 [JACAREUBIN] | 4.8 | 10.2 | 10.2 | 1 |
| CO[C@@]12[C@H](COC(N)=O)C3=C(C(=O)C(C)=C(N)C3=O)N1C[C@@H]1N[C@@H]12 [MITOMYCIN] | 1.13 |  |  | 0.19 |
| CC(=O)O[C@H]1C(=O)[C@@]2(C)[C@H]([C@H](OC(=O)c3ccccc3)[C@]3(O)C[C@H](OC(=O)[C@H](O)[C@@H](NC(=O)c4ccccc4)c4ccccc4)C(C)=C1C3(C)C)[C@]1(OC(C)=O)CO[C@@H]1C[C@@H]2O [PACLITAXEL] | 0.023 |  |  | 0.0026 |
